BindingDB's records for doi:10.1021/jm701266y (Lund University, 2008)

Target: Galectin-3 (Homo sapiens, UniProt P17931)
Test: Fluorescence Polarization Assay
Details: pH 7.2; 24 °C
Protocol: In fluorescence polarization measurements, a fluorescent probe was excited with plane-polarized light and the degree of polarization remaining in the emitted light is measured. When the probe is bound to protein, it rotates slower than when free, and the remaining fluorescence polarization is higher. The fluorescent anisotropy value for a probe-protein mixture is the average of the value for bound and free probe. For the direct binding asaay, the data (anisotropy, A in mA vs galectin concentration, [G] in uM) were fitted to a simplified formula to obtain Kd.

Sequence of Galectin-3 (P17931 whole entry): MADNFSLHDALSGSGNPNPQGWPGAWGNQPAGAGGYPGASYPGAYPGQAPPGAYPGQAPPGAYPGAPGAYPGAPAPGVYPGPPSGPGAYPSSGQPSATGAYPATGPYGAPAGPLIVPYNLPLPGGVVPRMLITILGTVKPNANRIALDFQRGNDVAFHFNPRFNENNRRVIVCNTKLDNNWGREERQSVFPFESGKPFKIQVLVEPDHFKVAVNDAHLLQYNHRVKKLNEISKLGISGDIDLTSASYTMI

SMILES: CS[C@@H]1O[C@H](CO)[C@H](O)[C@H](NC(=O)c2ccc(C)cc2)[C@H]1OCc1ccccc1 [N-[(2S,3R,4S,5R,6R)-3-(benzyloxy)-5-hydroxy-6-(hydroxymethyl)-2-(methylsulfanyl)oxan-4-yl]-4-methylbenzamide]
- Kd: 380 µM
